{"source": "patent US4346097A", "about": "“Method for treating convulsions with pyrazole-4-carboxamide derivatives” (Warner-Lambert Company, priority 1980, dated 1982)", "key": {"[1]": {"experiment": "Subcutaneous Pentylenetetrazole Seizure Threshold Test, scMet", "format": "in vivo", "conditions": "for PI scMet: Protective Index, ratio of TD50 vs ED50 scMet; for ED50: sc", "excerpt": "The compounds of structural formula I are new chemical substances of value as pharmacological agents for the treatment of convulsions in warm-bloodedanimals. The term convulsions is intended to mean the characteristic body movements which are associated with the group of chronic central nervous system disorders termed, epilepsies. The anticonvulsant activity of representative compounds of formula I was established by the following standard test procedures: […]\n3. Subcutaneous Pentylenetetrazole Seizure Threshold Test, scMet.\n(§1) These procedures are described in E. A. Swinyard, et al., Epilepsia, 19, 409 (1978), which is incorporated herein by reference. The TD50 is defined as the median minimal neurotoxic dose."}, "[2]": {"experiment": "Maximal Electroshock Seizure Test, MES", "format": "in vivo", "conditions": "for PI MES: Protective Index, ratio of TD50 vs ED50 MES", "excerpt": "(§2) The term convulsions is intended to mean the characteristic body movements which are associated with the group of chronic central nervous system disorders termed, epilepsies.\n2. Maximal Electroshock Seizure Test, MES.\nas §1"}, "Rotorod Test, TD50": {"experiment": "Rotorod Test, TD50", "conditions": "in vivo", "excerpt": "as §2, §1"}}, "data": [{"smiles": "CCC1(c2ccccc2)NC(=O)N(C)C1=O", "note": "(stereo not shown) [MEPHENYTOIN]", "values": [{"measurement": "PI scMet", "setting": "[1]", "value": 5.05}, {"measurement": "ED50", "setting": "[1]", "value": 30.4, "unit": "mg/kg"}, {"measurement": "ED50", "setting": "[2]", "value": 60.5, "unit": "mg/kg"}, {"measurement": "PI MES", "setting": "[2]", "value": 2.54}, {"measurement": "TD50", "setting": "Rotorod Test, TD50", "value": 154, "unit": "mg/kg"}]}, {"smiles": "Cc1ccccc1NC(=O)c1c(C)nn(C)c1N", "note": "[5-Amino-1,3-dimethyl-N-(2-methylphenyl)-1H-pyrazole-4-carboxamide]", "values": [{"measurement": "PI scMet", "setting": "[1]", "value": 1.94}, {"measurement": "ED50", "setting": "[1]", "value": 53.7, "unit": "mg/kg"}, {"measurement": "ED50", "setting": "[2]", "value": 25.7, "unit": "mg/kg"}, {"measurement": "PI MES", "setting": "[2]", "value": 4.05}, {"measurement": "TD50", "setting": "Rotorod Test, TD50", "value": 104, "unit": "mg/kg"}]}, {"smiles": "NC(=O)N1c2ccccc2C=Cc2ccccc21", "note": "[CARBAMAZEPINE]", "values": [{"measurement": "ED50", "setting": "[2]", "value": 8.81, "unit": "mg/kg"}]}, {"smiles": "Cc1nn(C)c(N)c1C(=O)Nc1cccc(Cl)c1", "note": "[5-Amino-N-(3-chlorophenyl)-1,3-dimethyl-1H-pyrazole-4-carboxamide]", "values": [{"measurement": "PI scMet", "setting": "[1]", "value": 2.35}, {"measurement": "ED50", "setting": "[1]", "value": 99.6, "unit": "mg/kg"}, {"measurement": "ED50", "setting": "[2]", "value": 47.3, "unit": "mg/kg"}, {"measurement": "PI MES", "setting": "[2]", "value": 4.95}, {"measurement": "TD50", "setting": "Rotorod Test, TD50", "value": 234, "unit": "mg/kg"}]}]}
